Results on 12 compounds are retold here after ChEMBL document CHEMBL1132457 (J Med Chem, 1999).

Test [1] concerns the target T1, Adenosine receptor A1 (Homo sapiens, UniProt P30542).
T1 sequence (P30542 whole entry): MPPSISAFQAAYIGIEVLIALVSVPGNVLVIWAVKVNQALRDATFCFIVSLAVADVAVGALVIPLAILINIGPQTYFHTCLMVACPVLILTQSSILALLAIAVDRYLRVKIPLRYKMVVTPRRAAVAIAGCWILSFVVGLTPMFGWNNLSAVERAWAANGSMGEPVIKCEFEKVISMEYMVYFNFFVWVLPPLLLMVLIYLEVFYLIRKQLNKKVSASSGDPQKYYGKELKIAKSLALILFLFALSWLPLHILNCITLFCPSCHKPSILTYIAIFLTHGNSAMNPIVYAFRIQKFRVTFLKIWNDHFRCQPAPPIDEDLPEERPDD
Nature of the test: Displacement of [3H]DPCPX from human Adenosine A1 receptor expressed in CHO cells. In kind it is cell-based. (Loss of bound radioactivity is the signal in a displacement assay; it reports binding, not function.)

Test [2] has as its system HEK293. Kind of test: Ratio of binding affinity for rat adenosine A1 and human adenosine A3 receptors expressed in HEK293 cells. In kind it is cell-based.
For test [3], the target named is T2, Adenosine receptor A2a (Homo sapiens, UniProt P29274). Nature of the test: Displacement of specific [3H]-SCH- 58261 binding at human Adenosine A2A receptor expressed in HEK293 cells. It is filed as cell-based.
Test [4] has as its target T3, Adenosine receptor A3 (Homo sapiens, UniProt P0DMS8).
T3 sequence (P0DMS8 whole entry): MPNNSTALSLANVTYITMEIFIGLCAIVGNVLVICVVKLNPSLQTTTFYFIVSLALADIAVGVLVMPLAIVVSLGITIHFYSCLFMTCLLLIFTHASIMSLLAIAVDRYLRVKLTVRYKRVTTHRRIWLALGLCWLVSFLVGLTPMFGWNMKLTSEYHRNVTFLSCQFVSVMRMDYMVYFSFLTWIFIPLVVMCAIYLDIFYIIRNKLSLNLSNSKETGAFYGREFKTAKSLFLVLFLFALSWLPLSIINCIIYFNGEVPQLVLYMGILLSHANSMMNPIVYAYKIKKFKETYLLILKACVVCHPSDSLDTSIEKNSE
Kind of test: Inhibitory concentration as antagonistic activity against cAMP generation inhibited by IB-MECA in CHO cell membranes transfected with human A3 receptor. It is filed as functional, cell-based.

Test [5] has as its target T4, Adenosine receptor A3 (Homo sapiens) (UniProt P0DMS8).
T4 sequence (whole entry): T3 sequence (P0DMS8 whole entry)
Nature of the test: Percent inhibition of cAMP-accumulation in CHO cells by IB-MECA at 1 uM. In kind it is functional, cell-based.

For test [6], the target named is Adenosine receptors; A1 & A3 (Homo sapiens) (UniProt P30542+P0DMS8). Nature of the test: Ratio of binding affinity for human adenosine A1 and A3 receptors expressed in HEK293 cells. In kind it is cell-based.
Test [7] relates to HEK293. Kind of test: Ratio of binding affinity for rat adenosine A2A of striatal membranes and human adenosine A3 receptors expressed in HEK293 cells. In kind it is cell-based.
Test [8] has as its target T5, Adenosine receptor A3 (Rattus norvegicus) (UniProt P28647).
T5 sequence (whole entry): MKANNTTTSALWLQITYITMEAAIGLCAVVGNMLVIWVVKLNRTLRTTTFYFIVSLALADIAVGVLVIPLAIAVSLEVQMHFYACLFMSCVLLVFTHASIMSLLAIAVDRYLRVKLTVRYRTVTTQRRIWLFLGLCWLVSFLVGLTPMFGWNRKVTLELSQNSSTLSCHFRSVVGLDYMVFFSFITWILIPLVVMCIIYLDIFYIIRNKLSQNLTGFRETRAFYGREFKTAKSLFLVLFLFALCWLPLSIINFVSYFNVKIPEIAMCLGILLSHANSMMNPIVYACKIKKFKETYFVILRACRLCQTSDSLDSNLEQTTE
In kind it is cell-based. As to conditions: CHO, 10 mM.

For test [9], the target named is T4, Adenosine receptor A3 (Homo sapiens). The note with it: CHO, 1 uM.
Description: Perent inhibition of cAMP-accumulation in CHO cells expressing human Adenosine A3 receptor by IB-MECA at 1 uM.
In test [10] the target is T3, Adenosine receptor A3. Kind of test: Inhibitory concentration as antagonistic activity against cAMP generation inhibited by IB-MECA in CHO cell membranes transfected with human Adenosine A3 receptor. It is filed as functional, cell-based.
Test [11] addresses T2, Adenosine receptor A2a. Nature of the test: Displacement of [3H]-SCH- 58261 from human Adenosine A2A receptor expressed in HEK293 cells. In kind it is cell-based.
The target of test [12] is Adenosine receptor A2a (Rattus norvegicus, UniProt P30543).
Description: Displacement of [3H]-SCH- 58261 from Adenosine A2A receptor in rat striatal membranes
In test [13] the target is T4, Adenosine receptor A3 (Homo sapiens). The note with it: CHO, 1 uM. This is another data set of the same source.
Description: Percent inhibition of cAMP-accumulation in CHO cells expressing hA3 adenosine receptors by IB-MECA at 1 uM.
Test [14] has the same target. Nature of the test: Percent inhibition of cAMP-accumulation in CHO cells by IB-MECA at 1 uM. In kind it is functional, cell-based.
Test [15] addresses T6, Adenosine receptor A1 (Rattus norvegicus, UniProt P25099).
T6 sequence (P25099 whole entry): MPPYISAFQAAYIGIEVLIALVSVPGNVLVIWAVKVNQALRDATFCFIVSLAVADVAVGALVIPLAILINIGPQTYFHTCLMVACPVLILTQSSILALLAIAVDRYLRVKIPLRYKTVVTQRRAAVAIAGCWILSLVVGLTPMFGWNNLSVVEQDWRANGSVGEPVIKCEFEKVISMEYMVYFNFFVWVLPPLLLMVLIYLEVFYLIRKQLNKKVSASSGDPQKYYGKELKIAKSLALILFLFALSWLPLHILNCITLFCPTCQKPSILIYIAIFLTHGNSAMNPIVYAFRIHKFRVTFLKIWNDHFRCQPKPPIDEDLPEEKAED
Kind of test: Displacement of [3H]DPCPX from Adenosine A1 receptor of rat brain membranes. In kind it is cell membranes, Membrane.

As a reminder, the Ki is the equilibrium dissociation constant of an inhibitor or competing ligand from its target. High values mean a looser hold on the target, low ones a stronger hold on the target. For orientation: IC50 means the concentration that inhibits the measured activity by half. Broadly, the inhibition is the relative decrease from the control value, in per cent. A lower inhibition goes with a response near the control.

T2 sequence (P29274 whole entry): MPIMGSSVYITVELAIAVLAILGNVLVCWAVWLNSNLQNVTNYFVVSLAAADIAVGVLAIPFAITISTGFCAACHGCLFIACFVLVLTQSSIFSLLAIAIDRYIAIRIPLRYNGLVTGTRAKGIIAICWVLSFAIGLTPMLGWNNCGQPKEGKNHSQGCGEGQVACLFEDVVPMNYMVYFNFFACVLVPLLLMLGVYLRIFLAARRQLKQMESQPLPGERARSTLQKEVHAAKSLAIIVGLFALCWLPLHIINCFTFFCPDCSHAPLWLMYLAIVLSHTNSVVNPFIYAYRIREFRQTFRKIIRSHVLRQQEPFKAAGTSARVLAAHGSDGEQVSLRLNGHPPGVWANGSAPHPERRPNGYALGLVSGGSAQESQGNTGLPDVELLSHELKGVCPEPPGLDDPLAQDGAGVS
Sequence of Adenosine receptor A2a (Rattus norvegicus, UniProt P30543) (P30543 whole entry): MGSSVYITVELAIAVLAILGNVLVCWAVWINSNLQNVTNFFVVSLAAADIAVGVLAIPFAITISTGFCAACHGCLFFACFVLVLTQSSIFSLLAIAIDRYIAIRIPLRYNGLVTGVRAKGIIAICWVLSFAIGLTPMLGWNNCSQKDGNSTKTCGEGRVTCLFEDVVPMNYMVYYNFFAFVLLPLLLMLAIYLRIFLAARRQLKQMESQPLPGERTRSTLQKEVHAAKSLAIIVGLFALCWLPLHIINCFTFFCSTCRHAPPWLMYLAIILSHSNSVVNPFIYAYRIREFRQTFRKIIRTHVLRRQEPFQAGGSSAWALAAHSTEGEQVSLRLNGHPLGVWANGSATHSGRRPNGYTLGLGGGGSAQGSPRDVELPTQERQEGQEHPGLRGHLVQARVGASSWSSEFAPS

Turning to `COc1ccc(NC(=O)Nc2nc3nn(CCc4ccccc4)cc3c3nc(-c4ccco4)nn23)cc1`, the values for the Ki on Adenosine receptor A1 [1] and on Adenosine receptor A2a [3] were 201 nM and 124 nM, respectively. Moreover, the Ratio in the test on HEK293 [2] turned out to be 872; in test [6] it was 136; in the test on HEK293 [7] it was 951. Besides, the IC50 against Adenosine receptor A3 [4] was determined as 12.4 nM. Also, the inhibition in test [5] amounted to 81%; in [8] it was 37%.
As for `Nc1nc2nn(CCCc3ccccc3)cc2c2nc(-c3ccco3)nn12`, the Ki on Adenosine receptor A1 [1] was determined as 3 nM; on Adenosine receptor A2a [3] it was 0.18 nM. The figures for the Ratio (in the test on HEK293 [2]; in test [6]; in the test with HEK293 [7]) were 0.004, 0.001 and 0.0002, respectively. For the same compound, the inhibition in [5] is 6%; in test [8], 32%.
Take `CCCn1cc2c(nc(NC(=O)Nc3ccc(OC)cc3)n3nc(-c4ccco4)nc23)n1`: the figures for the inhibition in [9] and in test [8] were 89% and 37%, respectively.
`CCCn1cc2c(nc(N)n3nc(-c4ccco4)nc23)n1`: the inhibition constant Ki on Adenosine receptor A1 [1] was 10 nM; on Adenosine receptor A2a [3], 2.55 nM. Moreover, the Ratio was 0.22 in the test with HEK293 [2], 0.016 in [6] and 0.03 with HEK293 [7]. The same compound had an IC50 against Adenosine receptor A3 [10] of 40.2 nM. In addition, the inhibition in [8] came out at 2%.
For the compound `CCCn1cc2c(nc(NC(=O)Nc3cccc(Cl)c3)n3nc(-c4ccco4)nc23)n1`, the Ki at Adenosine receptor A1 [1] was 30 nM; at Adenosine receptor A2a [11], 1220 nM; on Adenosine receptor A2a [12] it was > 10000 nM. Moreover, half-maximal inhibition on Adenosine receptor A3 [4] (IC50) was put at 5.3 nM. The inhibition came out at 20% in [8] and 87% in [13].
For the compound `COc1ccc(NC(=O)Nc2nc3nn(CCCc4ccccc4)cc3c3nc(-c4ccco4)nn23)cc1`, the Ki is 251 nM at Adenosine receptor A1 [1] and 1020 nM on Adenosine receptor A2a [3]. The Ratio is 76.4 in the test with HEK293 [2], 12.6 in test [6] and > 504 with HEK293 [7]. Further, the inhibition in test [5] was found to be 56%; in [8], 11%.
Turning to `CCn1cc2c(nc(NC(=O)Nc3cccc(Cl)c3)n3nc(-c4ccco4)nc23)n1`, the Ki was determined as 249 nM on Adenosine receptor A1 [1] and 185 nM on Adenosine receptor A2a [3]. This compound showed an IC50 at Adenosine receptor A3 [10] of 15.1 nM. The results for the inhibition in [8] and in test [13] were 36% and 71%, respectively.
Turning to `Nc1nc2nn(CCc3ccccc3)cc2c2nc(-c3ccco3)nn12`, the Ki was found to be 1 nM on Adenosine receptor A1 [1] and 0.31 nM at Adenosine receptor A2a [3]. The inhibition in [5] turned out to be 5%; in test [8], 12%.
Consider `O=C(Nc1cccc(Cl)c1)Nc1nc2nn(CCc3ccccc3)cc2c2nc(-c3ccco3)nn12`, for which the Ki on Adenosine receptor A1 [1] turned out to be 251 nM; on Adenosine receptor A2a [3] it was 110 nM. Moreover, the Ratio is 79 with HEK293 [2], 19 in [6] and 128 with HEK293 [7]. Also, the values for the inhibition in [5] and in [8] were 62% and 30%, respectively.
`O=C(Nc1cccc(Cl)c1)Nc1nc2nn(CCCc3ccccc3)cc2c2nc(-c3ccco3)nn12`: the Ki was 1500 nM at Adenosine receptor A1 [1] and 202 nM on Adenosine receptor A2a [3]. For the same compound, the inhibition came out at 50% in test [14] and 20% in [8]. Besides, the Ratio is > 234 in the test with HEK293 [2] and 75 with HEK293 [7].
For `CCn1cc2c(nc(N)n3nc(-c4ccco4)nc23)n1`, the Ki at Adenosine receptor A1 [1] was 5 nM; on Adenosine receptor A2a [3], 1.9 nM. Moreover, the values for the Ratio (in the test on HEK293 [2]; in test [6]; with HEK293 [7]) were 0.03, 0.0014 and 0.003, respectively. In addition, the inhibition is 3% in [5] and 1% in test [8].
Regarding `CCn1cc2c(nc(NC(=O)Nc3ccc(OC)cc3)n3nc(-c4ccco4)nc23)n1`, the Ki on Adenosine receptor A1 [15] and on Adenosine receptor A2a [12] was > 10000 nM throughout. Also, the IC50 against Adenosine receptor A3 [4] turned out to be 6.5 nM. Also, the inhibition in test [8] turned out to be 39%; in [13], 88%.
